Like-named read-outs stand apart in the source and are kept apart here.

The text below walks through data of patent US20240065998A1, “MONOACYLGLYCEROL AND FREE FATTY ACID-BASED COMPOSITIONS, METHODS OF MANUFACTURING AND USE OF THE SAME” (priority 2021, published 2024).

A short description of data set [1]: HLB values of compositional components. As to conditions: share in the oil phase of ACv14 (% of oil phase x rHLB); Total = sum. The text has this:
HLB is typically considered when planning oil-in-water cream formulations according to the requirements of the cream.
If the Oat EMO is omitted and the Flax FFA oil raised, then a higher rHLB is required, meaning that a larger percentage of the emulsifier can be high HLB (S-20). This 0% Oat MAG (EMO) and 4% Flaxseed FFA oil combo gives an rHLB value of 12.64, which would coincide with a 25/75 ratio of S-2/S-20 or Monolaurin/S-20. This would minimize the amount of S-2 which caused larger coalescence at a 1:1 ratio overnight.

For data set [2] the following is noted: cited from earlier work; for HLB: exemplary HLB value of the single emulsifier.
The subject of data set [3] is Respiratory Syncytial Virus (RSV), Herpes Simplex Virus (HSV), H1N1 flu virus, and SARS-CoV-2. It is filed as cell-based. As to conditions: nEMO at 0.5 to 50 mg/mL, EtOH 70%. An excerpt:
Table 73 below provides formulations of a nEMO sanitizer with 0.5% nEMO, 29.5% glycerol, and 70% […].

Data set [4] relates to Herpes simplex-1 (HSV-1, H1KOS S1). The data set is described as follows: Virucidal assay, 2 minute contact, end-point dilution (CCID50, LRV). As to conditions: 70%, 2 min, 37 ± 2° C. It is filed as cell-based.
For data set [5], the system named is SARS-CoV-2, USA_WA1/2020. It is filed as cell-based. As to conditions: 70%, 2 min, 37 ± 2° C.
For data set [6], the system named is titer assay cells (MA-104, Vero E6, Vero 76).
In data set [7] the test system is Respiratory syncytial virus (RSV, A2). It is filed as cell-based. To be noted: 70%, 2 min, 37 ± 2° C.; for LRV: VC titer 3.3.

Take `CCCCCCCCCCCCCCCCO` [Cetyl Alcohol]: the “rHLB of oil percentage” value in data set [1] is recorded as 3.69. The “Required HLB (rHLB)” value in data set [2] (exemplary value of the oil phase component) is on record as 15.5.

Regarding `CCO` [EtOH], the “Virucidal Activity” value was over 99.99% in data set [3] (H1N1, Log10 of initial virus concentration 5.7); over 99.99% in data set [3] (HSV, Log10 of initial virus concentration 5); over 99% in data set [3] (RSV, Log10 of initial virus concentration 3.3); over 99.99% in data set [3] (SARS-COV-2, Log10 of initial virus concentration 5).

As for `CCO` [Ethanol], the LRV in data set [4] (Table 60A, VC titer 4.5) is listed as over 3.8; in data set [4] (Table 60B, VC titer 5.0), over 4.3; in data set [5] (Table 59A, VC titer 5.3), over 4.6; in data set [5] (Table 59B, VC titer 5.0), over 4.3; in data set [7] (Table 57A), over 2.6; in data set [7] (Table 57B) it was over 2.6. Further, the “Virus Titer” value in data set [5] (Table 59A), in data set [5] (Table 59B), in data set [7] (Table 57A) and in data set [7] (Table 57B) was <0.7 log10 CCID50 of virus per 0.1 mL each time. Besides, in data set [6], the “Toxicity (highest dilution of the endpoint titer with full (80-100%) cytotoxicity)” value was “None”.

With `CCCCCCCCCCCC(=O)OCC(O)CO` (centres unmarked) [Glyceryl Laurate], the HLB in data set [2] is 5.2.

Regarding Glyceryl Stearate SE, in data set [2], the HLB was 5.8.

Consider Steareth-2, for which the HLB in data set [2] was 4.9.
